Measurements published in EPA's ToxValDB 9.5 (doi:10.2903/j.efsa.2014.3540).

Columns and labels:
[1] = test system: Apis mellifera; settings: acute, duration: 48 hours, mortality
[2] = test system: Oryctolagus sp.; settings: developmental; development
[3] = test system: Daphnia magna; settings: chronic/long-term; duration: 21 days; reproduction
[4] = test system: Colinus virginianus; settings: for LD50: acute, oral, mortality
[5] = test system: Oncorhynchus mykiss; settings: chronic/long-term; duration: 96 days; mortality
[6] = test system: Landoltia sp.; settings: acute; duration: 7 days; growth
[7] = test system: Tagia sp.; settings: acute; duration: 14 days; mortality
[8] = test system: Rattus norvegicus; settings: for NOAEL: chronic

SMILES: Cc1c(C(=O)c2c[nH]n(C)c2=O)ccc(S(C)(=O)=O)c1C1=NOCC1 [Topramezone]
- LD50 ([1]; dermal): > 100 µg/piece
- LD50 ([1]; oral, unspecified): > 72 µg/piece
- NOAEL [2]: 0.5 mg/kg-day
- NOEC [3]: 50 mg/L
- LD50 ([4]; diet): > 1080 mg/kg-day
- LD50 [4]: > 2000 mg/kg-day
- NOEL ([4]; reproduction developmental, reproduction): 19.4 mg/kg-day
- NOAEC [5]: 3.2 mg/L
- NOEC [6]: 0.001 mg/L
- LC50 [7]: > 1000 mg/kg
- LD50 ([8]; acute, oral, mortality): > 2000 mg/kg-day
- NOAEL ([8]; F): 0.4 mg/kg-day
- NOAEL ([8]; M): 0.3 mg/kg-day
- NOAEL ([8]; duration: 2 years, F, histopathology: neoplastic): 0.4 mg/kg-day
